Data on 40 molecules can be found in the PolyMetriX glass transition set.

The structures appear in SMILES notation.

`*CCCCCCCCCCCCOc1ccc(C(C)Cc2ccc(-c3ccc(O*)cc3)cc2)cc1` (repeat unit) showed a glass transition temperature of 40.00 °C.

The molecule `*CCCCCCCCCCCOC(=O)c1cc(OCCCCCCCCOc2ccc(/N=N/c3ccc(OC)cc3)cc2)cc(C(=O)OCCCCCCCCCCCOc2ccc(-c3ccc(O*)cc3)cc2)c1` (repeat unit) displayed a glass transition temperature of 60.00 °C. In the case of `*CCCCCCCCNC(=O)Cc1ccc(CC(=O)N*)cc1` (repeat unit) it was 110.00 °C; in that of `*CCCCCCNC(=O)Cc1ccc(C(=O)N*)cc1` (repeat unit), 104.00 °C. Under `*CCCCCCOC(=O)c1cc(OCCCCCCOc2ccc(/N=N/c3ccc(C#N)cc3)cc2)cc(C(=O)OCCCCCCN2C(=O)c3ccc(-c4ccc(-c5ccc6c(c5)C(=O)N(*)C6=O)cc4)cc3C2=O)c1` (repeat unit) stands 67.00 °C. On to `*CCCCCCOC(=O)c1cc(OCCCCCCOc2ccc(/N=N/c3ccc(C#N)cc3)cc2)cc(C(=O)OCCCCCCn2c(=O)c3cc4c(=O)n(*)c(=O)c4cc3c2=O)c1` (repeat unit), for which the glass transition temperature is 46.00 °C. In the case of `*CCCNC(=O)Cc1ccc(C(=O)N*)cc1` (repeat unit) it was 109.00 °C.

With `*CCOC(=O)Cc1ccc(C(=O)O*)cc1` (repeat unit), the glass transition temperature turned out to be 24.00 °C. Under `*Cc1cc2cc(C(=O)Nc3ccc(C(c4ccc(NC(=O)c5cc6cc(*)c(OC(=O)COc7ccc8ccc(=O)oc8c7)cc6oc5=O)cc4)(C(F)(F)F)C(F)(F)F)cc3)c(=O)oc2cc1OC(=O)COc1ccc2ccc(=O)oc2c1` (repeat unit) stands 257.00 °C. Under `*Cc1cc2cc(C(=O)Nc3ccc(NC(=O)c4cc5cc(*)c(OC(=O)COc6ccc7ccc(=O)oc7c6)cc5oc4=O)cc3)c(=O)oc2cc1OC(=O)COc1ccc2ccc(=O)oc2c1` (repeat unit) stands 252.00 °C.

As for `*Cc1cc2cc(C(=O)Nc3ccc(Oc4ccc(NC(=O)c5cc6cc(*)c(OC(=O)COc7ccc8ccc(=O)oc8c7)cc6oc5=O)cc4)cc3)c(=O)oc2cc1OC(=O)COc1ccc2ccc(=O)oc2c1` (repeat unit), the glass transition temperature is 226.00 °C.

In turn, `*Cc1ccc(COC(=O)Cc2ccc(C(=O)O*)cc2)cc1` (repeat unit) yielded a glass transition temperature of 47.00 °C. In the case of `*Nc1ccc(CC(C)(C)NC(=O)CCCCC(*)=O)cc1` (repeat unit) it was 130.00 °C. Under `*Nc1ccc(CC(C)(C)NC(=O)c2ccc(C(*)=O)cc2)cc1` (repeat unit) stands 175.00 °C.

As to `*OC(=O)Cc1ccc(CC(*)=O)cc1` (repeat unit), the glass transition temperature is 65.00 °C.

`*Oc1ccc(CC(NC(=O)CCc2ccc(OC(=O)CC(C)CCC(*)=O)cc2)C(=O)OC(C)CC)cc1` (repeat unit) came in with a glass transition temperature of 45.00 °C. Consider `*Oc1ccc(CC(NC(=O)CCc2ccc(OC(=O)CC(C)CCC(*)=O)cc2)C(=O)OCCCC)cc1` (repeat unit), for which the glass transition temperature came to 35.00 °C. In the case of `*Oc1ccc(CC(NC(=O)CCc2ccc(OC(=O)CCC(*)=O)cc2)C(=O)OC(C)C)cc1` (repeat unit) it was 82.00 °C. `*Oc1ccc(CC(NC(=O)CCc2ccc(OC(=O)CCC(*)=O)cc2)C(=O)OC(C)CC)cc1` (repeat unit) yielded a glass transition temperature of 75.00 °C. Under `*Oc1ccc(CC(NC(=O)CCc2ccc(OC(=O)CCC(C)CC(*)=O)cc2)C(=O)OC)cc1` (repeat unit) stands 53.00 °C; under `*Oc1ccc(CC(NC(=O)CCc2ccc(OC(=O)CCCC(*)=O)cc2)C(=O)OC(C)C)cc1` (repeat unit), 68.00 °C. Under `*Oc1ccc(CC(NC(=O)CCc2ccc(OC(=O)CCCC(*)=O)cc2)C(=O)OC)cc1` (repeat unit) stands 76.00 °C; under `*Oc1ccc(CC(NC(=O)CCc2ccc(OC(=O)CCCC(*)=O)cc2)C(=O)OCC(C)C)cc1` (repeat unit), 62.00 °C. Under `*Oc1ccc(CC(NC(=O)CCc2ccc(OC(=O)CCCC(*)=O)cc2)C(=O)OCCCCCCCC)cc1` (repeat unit) stands 32.50 °C; under `*Oc1ccc(CC(NC(=O)CCc2ccc(OC(=O)CCCC(*)=O)cc2)C(=O)OCCOCCOCC)cc1` (repeat unit), 21.00 °C. Regarding `*Oc1ccc(CC(NC(=O)Cc2ccc(OC(=O)CC(C)CCC(*)=O)cc2)C(=O)OCC)cc1` (repeat unit), the glass transition temperature turned out to be 63.00 °C.

Regarding `*Oc1ccc(CC(NC(=O)Cc2ccc(OC(=O)CCC(*)=O)cc2)C(=O)OCC)cc1` (repeat unit), the glass transition temperature was 75.50 °C. Consider `*Oc1ccc(CC(NC(=O)Cc2ccc(OC(=O)CCCC(*)=O)cc2)C(=O)OCC)cc1` (repeat unit), for which the glass transition temperature came to 65.00 °C.

In turn, `*Oc1ccc(CC(NC(=O)Cc2ccc(OC(=O)CCCCC(*)=O)cc2)C(=O)OCCCCCC)cc1` (repeat unit) had a glass transition temperature of 36.00 °C. In the case of `*Oc1ccc(CC(NC(=O)Cc2ccc(OC(=O)CCCCC(*)=O)cc2)C(=O)OCCCCCCCC)cc1` (repeat unit) it was 28.00 °C; in that of `*c1c(C)cc(Cc2cc(C)c(N3C(=O)c4ccc(Oc5c(C)cc(Cc6cc(C)c(Oc7ccc8c(c7)C(=O)N(*)C8=O)c(C)c6)cc5C)cc4C3=O)c(C)c2)cc1C` (repeat unit), 264.00 °C. In the case of `*c1ccc(CC(=O)Nc2ccc(Cc3ccc(NC(=O)Cc4ccc(-c5sc(*)c(-c6ccccc6)c5-c5ccccc5)cc4)cc3)cc2)cc1` (repeat unit) it was 227.00 °C; in that of `*c1ccc(CC(=O)Nc2cccc(NC(=O)Cc3ccc(-c4sc(*)c(-c5ccccc5)c4-c4ccccc4)cc3)c2)cc1` (repeat unit), 228.00 °C. In the case of `*c1ccc(Cc2ccc(-n3c(=O)c4cc5c(=O)n(*)c(=O)c5cc4c3=O)c(C(C)(C)C)c2)cc1C(C)(C)C` (repeat unit) it was 217.00 °C. As for `*c1ccc(Cc2ccc(N3C(=O)C4CCC5C(=O)N(*)C(=O)C5C4C3=O)c(C)c2)cc1C` (repeat unit), the glass transition temperature is 340.00 °C. Under `*c1ccc(Cc2ccc(N3C(=O)c4ccc(S(=O)(=O)c5ccc6c(c5)C(=O)N(*)C6=O)cc4C3=O)c(C(C)(C)C)c2)cc1C(C)(C)C` (repeat unit) stands 336.00 °C; under `*c1ccc(Cc2ccc(N3C(=O)c4ccc(Sc5ccc6c(c5)C(=O)N(*)C6=O)cc4C3=O)c(C(C)(C)C)c2)cc1C(C)(C)C` (repeat unit), 300.50 °C. Under `*c1ccc(Oc2ccc(-c3ccc(Oc4ccc(N5C(=O)c6ccc(Oc7c(C)cc(Cc8cc(C)c(Oc9ccc%10c(c9)C(=O)N(*)C%10=O)c(C)c8)cc7C)cc6C5=O)cc4)cc3)cc2)cc1` (repeat unit) stands 248.00 °C.

For `*c1ccc2c(c1)C(=O)N(c1ccc(Cc3ccc(N4C(=O)c5ccc(C(*)(C(F)(F)F)C(F)(F)F)cc5C4=O)c(C(C)(C)C)c3)cc1C(C)(C)C)C2=O` (repeat unit), the glass transition temperature is 274.00 °C. With `*c1cccc(N2C(=O)c3cccc(Oc4c(C)cc(Cc5cc(C)c(Oc6cccc7c6C(=O)N(*)C7=O)c(C)c5)cc4C)c3C2=O)c1` (repeat unit), the glass transition temperature turned out to be 269.00 °C.
